Experimental data reported in patent US20220095617A1, “PLANT GROWTH REGULATING AGENT” (IDEMITSU KOSAN CO.,LTD., priority 2019, published 2022).

Assays:
lettuce (Green Wave) [1] = experiment: Example 1: High-temperature stress Petri dish test (lettuce), comparison with other natural products; format: in vivo; conditions: 0.1 ppm in agar medium
lettuce (Green Wave) [2] = experiment: Example 4: High-temperature stress Petri dish test (lettuce), comparison with flavonoids; format: in vivo; conditions: 0.1 ppm
lettuce (Green Wave) [3] = experiment: Example 2: High-temperature stress Petri dish test (lettuce), blending with neohesperidin
Protocol: For seeds, 2% water agar medium (using water as the solvent), which was prepared such that hesperidin (Fujifilm Wako Pure Chemical Corporation; special-grade reagent) and neohesperidin (Fujifilm Wako Pure Chemical Corporation; special-grade reagent) were contained at the predetermined final concentrations shown in Table 2, was filled into square Petri dishes (“model number: D-210-16”, manufactured by As One Corporation). Before high-temperature treatment, lettuce (Green Wave, Takii & Co., Ltd.) was sown on 2% water agar medium, and lettuce seedlings on day 2 after the sowing were transplanted to the above-described agar medium to which the hesperidin and/or the like was/were added. At the time of the transplantation, the tip of the root was marked. Each Petri dish after the transplantation was placed in an incubator (“model number: FLI-2010A”, manufactured by EYELA) at an angle of 45° with respect to the bottom surface, and high-temperature treatment was carried out at 42° C. for 1.5 hours. Thereafter, culture was similarly performed at 23° C. for 2 days, and then the increase in the root length was evaluated in terms of elongation from the tip of the root of each seedling at the time of the transplantation. In addition, for evaluation of the effect of the mixture of hesperidin and neohesperidin in normal cultivation, culture was similarly performed at 23° C. without performing the high-temperature treatment, followed by evaluation of the increase in the root length. […] The Colby's equation is as follows.
E=(x+y)−(x·y)/100 Colby's equation:
E: Expected root length x: Root length in the case of application of hesperidin alone y: Root length in the case of application of neohesperidin alone For each group, 15 measurement results were obtained (N=15).

Rice (Koshihikari) seeds = experiment: Example 5: High-temperature stress Petri dish test (rice seeds); format: in vivo; conditions: for Germination rate, Increase rate: non-addition group = 100.0; for Germination rate, Average: seeds 65° C. hot water 10 minutes, 28° C. 5 days
Protocol: Rice (Koshihikari) seeds were soaked in hot water at 65° C. for 10 minutes to perform high-temperature treatment. […] A group similarly soaked in distilled water was provided as a non-addition group. After the soaking treatment, the seeds were dried in air, and then 20 seeds were sown on each of shallow Petri dishes in which qualitative filter paper was placed. To the filter paper in each Petri dish, 5 mL of distilled water was uniformly added dropwise. […] For each group, three measurement results were obtained (N=3).

lettuce (Green Wave) [4] = experiment: Example 3: High-temperature stress Petri dish test (lettuce), blending with β-carotene; format: in vivo; conditions: 0.1 ppm
[5] = High-temperature treatment (42° C., 1.5 hours), then 23° C. 2 days
[6] = High-temperature treatment (42° C., 1.5 hours)

| Compound | Root length (lettuce (Green Wave) [1]; [5]) [mm] | Root length (lettuce (Green Wave) [1]; Normal cultivation) [mm] | further results |
| --- | --- | --- | --- |
| CC1=C(/C=C/C(C)=C/C=C/C(C)=C/C=C/C=C(C)/C=C/C=C(C)/C=C/C2=C(C)C(=O)[C@@H](O)CC2(C)C)C(C)(C)C[C@H](O)C1=O [Astaxanthin, reference compound] | 11.1 | 20.0 |  |
| CC1=C(/C=C/C(C)=C/C=C/C(C)=C/C=C/C=C(C)/C=C/C=C(C)/C=C/C(=O)[C@]2(C)C[C@@H](O)CC2(C)C)C(C)(C)C[C@H](O)C1 [Capsanthin, reference compound] | 10.7 | 20.4 |  |
| O=c1c(-c2ccc(O)cc2)coc2cc(O)ccc12 [Daidzein] |  |  | Root length (lettuce (Green Wave) [2]; [6]): 7.5 mm; Root length (lettuce (Green Wave) [2]; Normal cultivation): 26.6 mm |
| O=c1c(-c2ccc(O)cc2)coc2cc(O)cc(O)c12 [Genistein] |  |  | Root length (lettuce (Green Wave) [2]; [6]): 7.4 mm; Root length (lettuce (Green Wave) [2]; Normal cultivation): 25.8 mm |
| COc1ccc([C@@H]2CC(=O)c3c(O)cc(O)cc3O2)cc1O [Hesperetin, hesperetin] | 18.0 | 23.5 |  |
| O=C1C[C@@H](c2ccc(O)cc2)Oc2cc(O)cc(O)c21 [Naringenin] |  |  | Root length (lettuce (Green Wave) [2]; [6]): 8.4 mm; Root length (lettuce (Green Wave) [2]; Normal cultivation): 22.1 mm |
| COc1ccc(CCC(=O)c2c(O)cc(O[C@@H]3O[C@H](CO)[C@@H](O)[C@H](O)[C@H]3O[C@@H]3O[C@@H](C)[C@H](O)[C@@H](O)[C@H]3O)cc2O)cc1O [Neohesperidin dihydrochalcone, neohesperidin dihydrochalcone] | 15.3 | 23.4 |  |
| COc1ccc([C@@H]2CC(=O)c3c(O)cc(O[C@@H]4O[C@H](CO)[C@@H](O)[C@H](O)[C@H]4O[C@@H]4O[C@@H](C)[C@H](O)[C@@H](O)[C@H]4O)cc3O2)cc1O [Neohesperidin] | 21.5 | 26.5 | Root length (lettuce (Green Wave) [3]; High-temperature treatment (42° C., 1.5 hours), 0.03 ppm): 4.9 mm; Root length (lettuce (Green Wave) [3]; High-temperature treatment (42° C., 1.5 hours), 0.1 ppm): 6.4 mm; Root length (lettuce (Green Wave) [3]; Normal cultivation, 0.03 ppm): 17.6 mm; Root length (lettuce (Green Wave) [3]; Normal cultivation, 0.1 ppm): 18.1 mm |
| COc1ccc(-c2cc(=O)c3c(OC)c(OC)c(OC)c(OC)c3o2)cc1OC [Nobiletin, nobiletin] | 14.1 | 23.1 |  |
| O=C(CCc1ccc(O)cc1)c1c(O)cc(O)cc1O [Phloretin, phloretin] | 14.8 | 21.9 |  |
| COc1ccc(-c2cc(=O)c3c(OC)c(OC)c(OC)c(OC)c3o2)cc1 [Tangeretin, tangeretin] | 18.1 | 23.5 |  |
| COc1ccc([C@@H]2CC(=O)c3c(O)cc(O[C@@H]4O[C@H](CO[C@@H]5O[C@@H](C)[C@H](O)[C@@H](O)[C@H]5O)[C@@H](O[C@H]5O[C@H](CO)[C@@H](O)[C@H](O)[C@H]5O)[C@H](O)[C@H]4O)cc3O2)cc1O [α-Monoglucosyl hesperidin, α-monoglucosyl hesperidin] | 18.7 | 23.7 |  |
| CC1=C(/C=C/C(C)=C/C=C/C(C)=C/C=C/C=C(C)/C=C/C=C(C)/C=C/C2=C(C)CCCC2(C)C)C(C)(C)CCC1 [β-Carotene, reference compound] | 11.2 | 22.3 | Germination rate, Increase rate (Rice (Koshihikari) seeds; 1 ppm): 118.9%; Germination rate, Increase rate (Rice (Koshihikari) seeds; 10 ppm): 134.0%; Germination rate, Increase rate (Rice (Koshihikari) seeds; 100 ppm): 103.7%; Germination rate, Average (Rice (Koshihikari) seeds; then soaked 1 hour at 1 ppm): 69.9%; Germination rate, Average (Rice (Koshihikari) seeds; then soaked 1 hour at 10 ppm): 78.8%; Germination rate, Average (Rice (Koshihikari) seeds; then soaked 1 hour at 100 ppm): 61.0%; Root length (lettuce (Green Wave) [4]; [6]): 7.5 mm; Root length (lettuce (Green Wave) [4]; Normal cultivation): 23.8 mm |
| hesperidin methylchalcone | 16.7 | 22.8 |  |
